# In patent US11013224B2, “Substance and composition for veterinary purpose” (priority 2016, dated 2021):
# Like-named read-outs stand apart in the source and are kept apart here.
# What was measured:
# hoof [1] = assay: Application of cromoglycate using limb perfusion in healthy horses; format: in vivo
# Protocol: Standard blood analysis was carried out before and after treatment. Hoof quality and growth were determined over a period of time as described above.
# hoof [2] = assay: Application of cromoglycate using inhalation in horses; format: in vivo
# Protocol: Gas mix system and the Air-ONE nebuliser were prepared and operated as per manufacturer's instructions. […] Treatment was continued until all 70 ml had been inhaled (between 20 to 30 minutes). Horses were treated at 2 day intervals for at least 1 and up to 3 weeks. […] Micro-circulation was measured during inhalation using PeriFlux System 5000. Hoof quality and growth were determined as described above.
# hoof [3] = test system: hoof
# Protocol: Routine equine intravenous fluid therapy was carried out twice per week for 4 weeks. Standard blood analysis was carried out on Abbott i-STAT systems, Abbott Architect ci8200 and Architect Celldyn CD3700 before and after treatment. Micro-circulation was measured during treatment using PeriFlux System 5000. Hoof quality and growth were determined as described above.
# [4] = limb perfusion, 35 ml of 71 g/L per front limb
structure (smiles),measurement,setting,value
O=C(O)c1cc(=O)c2c(OCC(O)COc3cccc4oc(C(=O)O)cc(=O)c34)cccc2o1 [sodium cromoglycate],"Heart rate, temperature and gut sounds",hoof [1]; 24 h after injection,normal
same,Hoof growth and hoof quality,hoof [1]; limb perfusion,increases hoof growth and improves hoof quality
same,"Ionized calcium, pre vs post treatment blood data",hoof [1]; [4],a change
same,"Potassium, pre vs post treatment blood data",hoof [1]; [4],a reduction
same,Tolerability of repeated inhalation,"hoof [2]; 70 ml of 70 g/l per horse by nebuliser, 2 day intervals, 1 to 3 weeks",well tolerated
same,Calcium upon treatment,hoof [2]; inhalation,effected
same,"Digestion, coat and hoof quality",hoof [2]; inhalation,improves
same,Hoof growth and hoof quality,hoof [2]; inhalation,increases hoof growth and improves hoof quality
same,Micro-circulation,"hoof [2]; measured during inhalation, PeriFlux System 5000",activates
same,Hoof growth and hoof quality,hoof [3]; intravenous fluid,increases hoof growth and improves hoof quality
same,"Digestion, coat and hoof quality",hoof [3]; intravenous fluid infusion,improves
same,Calcium upon treatment,hoof [3]; intravenous fluid therapy,effected
